# Laboratory results as given in paper PMC4214760, “Host Cofactors and Pharmacologic Ligands Share an Essential Interface in HIV-1 Capsid That Is Lost upon Disassembly” (PLoS Pathogens, 2014).
# Entries after “also recorded” stand apart in the source; their conditions may differ. Read-outs that look alike come from different tables or passages of the source. Ends that are not written are not given here.
# Experiments:
# [1] = biological target: T1, HIV-1 CA hexamer (Human immunodeficiency virus type 1 group M subtype B, UniProt P12493, A146C/E177C/M317A/W316A); assay: biochemical; assay type: binding
# T1 construct: produced by assembly of recombinant CA containing four amino acid substitutions; made in house
# Procedure: (§1) Hexamer protein was dialysed against ITC buffer (50 mM TRIS pH 7.4, 150 mM NaCl) for experiments using intact hexamer, or ITC buffer containing 1 mM DTT for experiments with monomerized hexamer. The monomeric status of hexamer dialysed against buffer containing DTT was confirmed by size exclusion chromatography. Peptides were dissolved in the same buffer as hexamer; NUP153 peptides were first dissolved in DMSO to a concentration of 8 mM before diluting in buffer. Drugs were dissolved in DMSO to a concentration of 5 mM, before diluting in buffer. In all cases, hexamer (in the syringe) was titrated into the peptide or drug ligand (in the cell), with the exception of the competition experiments, whereby peptide (400 µM) was titrated into hexamer (30 µM) in the presence of drug (100 µM). Typical concentrations used were 600–800 µM hexamer titrated against 60–80 µM peptide unless indicated otherwise, and 200 µM hexamer titrated against 30 µM drug. ITC experiments were conducted on a MicroCal ITC-200, and data analyzed using Origin data analysis software (MicroCal).
# [2] = biological target: T1, HIV-1 CA hexamer; assay: ITC competition: cofactor peptide titrated into hexamer in the presence of drug; assay type: binding
# Procedure: as §1
# [3] = test system: VSV-G pseudotyped GFP-encoding HIV-1 vector; assay type: cell-based
# [4] = test system: HIV-1 reverse transcription; assay type: cell-based
# [5] = biological target: T2, monomeric HIV-1 CA (Human immunodeficiency virus type 1 group M subtype B, UniProt P12493, A146C/E177C/M317A/W316A); assay: ITC binding to monomeric CA (hexamer monomerized with 1 mM DTT)
# T2 construct: produced by assembly of recombinant CA containing four amino acid substitutions; made in house
# Procedure: as §1
# [6] = read-out: Kd (approximate), hexamer binding of CPSF6 and NUP153 mutant peptides, ITC, Hex 0.76-1.122 mM into peptide 0.076-0.112 mM, NB = no binding detectable
compound,measurement,setting,value
CN(C(=O)[C@H](Cc1ccccc1)NC(=O)Cc1cc[nH]c1)c1ccccc1 [PF74_3],Kd,[1],5.5 µM
same,Fold reduction in affinity to hexamer relative to PF74,[1]; ITC,46 fold
CN(C(=O)[C@H](Cc1ccccc1)NC(=O)Cc1ccoc1)c1ccccc1 [PF74_4],Fold reduction in affinity to hexamer relative to PF74,[1]; ITC,94 fold
CN(C(=O)[C@H](Cc1ccccc1)NC(=O)Cc1ccsc1)c1ccccc1 [PF74_5],Fold reduction in affinity to hexamer relative to PF74,[1]; ITC,54 fold
CN(C(=O)[C@H](Cc1ccccc1)NC(=O)CC1CCOC1)c1ccccc1 (stereo partly shown) [PF74_6],Fold reduction in affinity to hexamer relative to PF74,[1]; ITC,> 1000 fold
PF74,Competition with CPSF6 peptide for binding to hexamer,[2],inhibit CPSF6 binding to hexamer
same,Competition with NUP153 peptide for binding to hexamer,[2],prevent NUP153 binding to hexamer
same,Fold higher affinity to hexamer than BI-2,[1],10 fold
same,Fold increase in affinity to hexamer compared with monomeric CA,[1],22 fold
same,"N (stoichiometry), binding to HIV-1 hexamer",[1],0.7
same,"ΔH, binding to HIV-1 hexamer",[1],-9.02 kcal/mol
same,"ΔS, binding to HIV-1 hexamer",[1],1.20 (cal/mol)/deg
same,Reversal of inhibition of infection on wash out,[3],completely; also recorded: partially
same,Time post-infection by which almost all efficacy was lost when addition was delayed,[3],≤ 10 h
same,Reversibility of block to reverse transcription on wash out,[4],largely irreversible
same,"N (stoichiometry), binding to monomeric CA",[5],0.7
same,"ΔH, binding to monomeric CA",[5],-16.1 kcal/mol
same,"ΔS, binding to monomeric CA",[5],-29.0 (cal/mol)/deg
PVLFDGQPFGQPPLG [CPSF6pep P317D],Kd,[1]; [6],> 700 µM
PVLFPGQPAGQPPLG [CPSF6pep F321A],Kd,[1]; [6],> 700 µM
PVLFPRQPFGQPPLG [CPSF6pep G318R],Kd,[1]; [6],> 700 µM
TNNSPAGVFTFGANSST [Nup153pep S1412A],Kd,[1],~130 µM
TNNSPSGVATFGANSST [Nup153pep F1415A],Kd,[1]; [6],> 700 µM
TNNSPSGVFAFGANSST [Nup153pep T1416A],Kd,[1]; [6],> 700 µM
TNNSPSGVFTAGANSST [Nup153pep F1417A],Kd,[1]; [6],> 700 µM
